From ChEMBL document CHEMBL1201862, “PubChem BioAssay data set” (2004)
Activity calls are given as the source filed them.

Legend:
[1] = molecular target: T1, Serine/threonine-protein phosphatase (Candida dubliniensis (strain CD36 / CBS 7987 / NCPF 3949 / NRRLY-17841) (Yeast), UniProt B9W6M3); test: blockers of CaCl2-induced CDRE-lacZ signaling – S. cerevisiae, luminescence, secondary, dose response (AID 2388); assay type: functional, cell-based;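 further: yeast reporter cells carrying a calcineurin-responsive lacZ construct stimulated with calcium chloride; luminescent beta-galactosidase reporter signal in whole cells rather than isolated phosphatase activity; potency for inhibition where a drop in reporter signal means calcineurin blockade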
T1 sequence (B9W6M3 whole entry): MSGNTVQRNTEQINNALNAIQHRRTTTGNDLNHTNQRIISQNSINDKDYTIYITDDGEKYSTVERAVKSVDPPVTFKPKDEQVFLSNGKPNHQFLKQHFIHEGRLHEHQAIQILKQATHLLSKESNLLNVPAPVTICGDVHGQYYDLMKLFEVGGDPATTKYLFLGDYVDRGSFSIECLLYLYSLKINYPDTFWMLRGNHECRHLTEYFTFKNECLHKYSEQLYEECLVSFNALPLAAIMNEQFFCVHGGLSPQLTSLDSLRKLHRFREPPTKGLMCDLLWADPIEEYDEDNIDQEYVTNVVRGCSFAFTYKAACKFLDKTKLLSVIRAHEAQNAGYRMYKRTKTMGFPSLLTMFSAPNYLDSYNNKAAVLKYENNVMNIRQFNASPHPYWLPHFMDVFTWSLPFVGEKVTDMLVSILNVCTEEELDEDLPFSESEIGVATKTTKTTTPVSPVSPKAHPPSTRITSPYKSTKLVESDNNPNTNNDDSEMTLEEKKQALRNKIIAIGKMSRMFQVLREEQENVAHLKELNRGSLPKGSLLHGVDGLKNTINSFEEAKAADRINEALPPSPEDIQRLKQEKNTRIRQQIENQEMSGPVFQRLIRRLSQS

[2] = molecular target: ATP-dependent molecular chaperone HSP82 (Candida albicans (strain WO-1) (Yeast), UniProt C4YTQ8); test: steroid-induced GRE reporter decrease in yeast – S. cerevisiae, luminescence, Hsp90 inhibitor project, dose response (AID 2400); assay type: functional, cell-based;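 further: beta-galactosidase luminescence from glucocorticoid response element reporter as proxy for Hsp90 function; inhibitor potency where signal loss means Hsp90 inhibition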
[3] = fluconazole-exposed Candida albicans growth modulators – fluorescence, retest, confirmation (AID 2467); assay type: functional, cell-based
[4] = NIH-3T3 fibroblast cytotoxicity, dose response, cytotoxicity control, cell-based, fluorescence, Alamar Blue, secondary assay (AID 2327); assay type: functional;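 further: NIH-3T3 mouse fibroblasts cultured with fluconazole at 8 µg/mL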
[5] = molecular target: T2, Short transient receptor potential channel 4 (Mus musculus, UniProt Q9QUQ5); test: block of DAMGO-driven TRPC4 calcium entry – cell-based, HEK293 TRPC4/mu-opioid, Fluo-4 calcium, dose response (AID 434942); assay type: functional;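 further: potency of inhibitors blocking the TRPC4 calcium response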
T2 sequence (Q9QUQ5 whole entry): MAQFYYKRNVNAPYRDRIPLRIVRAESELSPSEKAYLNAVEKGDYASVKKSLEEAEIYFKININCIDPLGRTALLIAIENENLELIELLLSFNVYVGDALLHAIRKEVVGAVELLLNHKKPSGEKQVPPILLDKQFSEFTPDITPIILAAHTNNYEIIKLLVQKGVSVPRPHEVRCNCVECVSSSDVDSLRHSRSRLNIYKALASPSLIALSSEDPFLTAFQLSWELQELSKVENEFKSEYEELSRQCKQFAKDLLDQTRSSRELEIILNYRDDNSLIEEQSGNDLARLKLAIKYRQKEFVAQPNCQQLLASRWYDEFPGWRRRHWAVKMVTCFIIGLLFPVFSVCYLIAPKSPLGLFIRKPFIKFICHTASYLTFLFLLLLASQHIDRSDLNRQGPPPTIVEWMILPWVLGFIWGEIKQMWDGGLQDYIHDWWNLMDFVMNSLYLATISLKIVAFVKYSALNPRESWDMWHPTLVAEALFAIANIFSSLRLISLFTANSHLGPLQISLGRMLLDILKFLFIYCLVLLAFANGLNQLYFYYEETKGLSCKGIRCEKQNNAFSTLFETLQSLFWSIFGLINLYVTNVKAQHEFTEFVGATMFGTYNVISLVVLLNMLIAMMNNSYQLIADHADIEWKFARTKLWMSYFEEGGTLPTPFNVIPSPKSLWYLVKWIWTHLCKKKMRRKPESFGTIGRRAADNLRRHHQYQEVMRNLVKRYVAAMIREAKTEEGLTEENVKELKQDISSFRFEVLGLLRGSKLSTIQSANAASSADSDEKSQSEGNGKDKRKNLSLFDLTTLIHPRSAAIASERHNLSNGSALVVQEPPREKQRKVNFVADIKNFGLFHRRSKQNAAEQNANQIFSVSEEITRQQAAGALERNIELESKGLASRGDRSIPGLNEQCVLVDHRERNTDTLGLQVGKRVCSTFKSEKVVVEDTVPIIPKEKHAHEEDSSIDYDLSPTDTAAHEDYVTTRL

[6] = alpha-synuclein stem-loop luciferase translation blockers – H4 neuroglioma cells, luminescence, confirmation (AID 1988); assay type: functional, cell-based
[7] = reduction of Shn3 3'UTR-driven luciferase in osteoblasts – cell-based, Clone20 osteoblasts, firefly luciferase, cherry-picked, dose response (AID 624132); assay type: functional;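 further: firefly luciferase luminescence from reporter carrying the Shn3 3'UTR in osteoblasts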
[8] = cells; assay type: functional, cell-based
[9] = tested on: INS1; test: INS-1E survival protection against cytokine death – cell-based, luminescence, retest, dose response (AID 449756); assay type: functional; details: Rattus norvegicus;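 further: cell death triggered by IL-1 beta plus TNF-alpha plus IFN-gamma mixture; protective hits raise ATP signal compared with cytokine alone wells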
[10] = Luminescence Cell-Based Dose Response HTS to Identify Inhibitors of 5'UTR Stem-Loop Driven Prion Protein mRNA Translation in H4 Neuroglioblastoma Cells. [Related pubchem assays: 1827 (Project Summary), 1813 (Primary HTS)]; assay type: functional
[11] = Trypanosoma cruzi growth suppression in host cells – NIH3T3 host cells, beta-gal luminescence, confirmation (AID 2044); assay type: functional, cell-based;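 further: intracellular parasites grown in NIH/3T3 mouse fibroblasts as host cells; luminescent beta-galactosidase reporter signal from transgenic T. cruzi replicating inside host cells; inhibitors lower the luminescence signal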
[12] = tested on: Streptococcus sp. 'group A'; test: Streptococcus pyogenes SK(-)GAS viability under kanamycin – luminescence, BacTiterGlo, confirmation, counter-screen for streptokinase expression inhibitor project, dose response (AID 1900); assay type: functional, organism-based
[13] = cells; assay type: functional, cell-based; remark: listed apart in the source
[14] = NIH3T3 cell viability loss – ATP luminescence, mouse fibroblasts, counter-screen, dose response (AID 2010); assay type: functional, cell-based;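 further: cells exposed to compound for about 90 hours before reading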
[15] = tested on: Streptococcus; test: GAS UMAA2166 growth inhibition – luminescence, BacTiterGlo, counter-screen for streptokinase expression inhibitor project, dose response (AID 1915); assay type: functional, organism-based;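 further: potency for reduction of bacterial viability or growth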
[16] = non-specific 3'UTR reporter inhibition in Clone20-Shn3RL – cell-based, Renilla luciferase, cherry-picked, counter-screen for Shn3 inhibitor project, dose response (AID 624133); assay type: functional
[17] = luciferase reporter signal suppression in cells – H4 neuroglioma cells, luminescence, dose response (AID 1990); assay type: functional, cell-based
[18] = molecular target: Heat shock protein HSP 90-alpha (Homo sapiens, UniProt P07900); assay type: functional, organism-based
[19] = loss of viability in HepG2 cells – cell-based, CellTiter-Glo, cherry-picked, cytotoxicity control for Shn3 inhibitor project, dose response (AID 624134); assay type: functional
[20] = molecular target: T3, Streptokinase A (Streptococcus pyogenes serotype M1, UniProt P10520); test: viability-normalized secreted streptokinase activity reduction – plasminogen activation absorbance, OD405, dose response (AID 1914); assay type: functional, Streptococcus pyogenes M1 GAS;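 further: secreted streptokinase activity via plasminogen activation per viability signal from cell pellet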
T3 sequence (P10520 whole entry): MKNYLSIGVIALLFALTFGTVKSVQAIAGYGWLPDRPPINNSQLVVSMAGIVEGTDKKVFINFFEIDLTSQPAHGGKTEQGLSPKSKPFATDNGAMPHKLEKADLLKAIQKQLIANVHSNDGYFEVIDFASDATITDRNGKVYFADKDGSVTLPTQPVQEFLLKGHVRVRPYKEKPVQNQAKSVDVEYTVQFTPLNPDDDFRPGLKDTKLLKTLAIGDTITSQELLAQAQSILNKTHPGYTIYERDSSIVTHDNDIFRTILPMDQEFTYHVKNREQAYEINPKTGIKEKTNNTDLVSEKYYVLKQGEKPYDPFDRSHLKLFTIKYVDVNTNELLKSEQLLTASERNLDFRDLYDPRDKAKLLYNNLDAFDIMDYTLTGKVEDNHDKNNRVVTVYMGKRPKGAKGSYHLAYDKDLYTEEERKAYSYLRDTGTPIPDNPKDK

[21] = cells; assay type: functional
[22] = molecular target: T4, Microphthalmia-associated transcription factor (Homo sapiens, UniProt O75030); test: reducers of TRPM1 reporter luminescence, concentration series – cell-based, SK-MEL-5, cherry-picked, set 3, MITF inhibitor project, dose response (AID 493073); assay type: functional;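 further: SK-MEL-5 melanoma cells with luciferase driven by the MITF target TRPM1 promoter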
T4 sequence (O75030 whole entry): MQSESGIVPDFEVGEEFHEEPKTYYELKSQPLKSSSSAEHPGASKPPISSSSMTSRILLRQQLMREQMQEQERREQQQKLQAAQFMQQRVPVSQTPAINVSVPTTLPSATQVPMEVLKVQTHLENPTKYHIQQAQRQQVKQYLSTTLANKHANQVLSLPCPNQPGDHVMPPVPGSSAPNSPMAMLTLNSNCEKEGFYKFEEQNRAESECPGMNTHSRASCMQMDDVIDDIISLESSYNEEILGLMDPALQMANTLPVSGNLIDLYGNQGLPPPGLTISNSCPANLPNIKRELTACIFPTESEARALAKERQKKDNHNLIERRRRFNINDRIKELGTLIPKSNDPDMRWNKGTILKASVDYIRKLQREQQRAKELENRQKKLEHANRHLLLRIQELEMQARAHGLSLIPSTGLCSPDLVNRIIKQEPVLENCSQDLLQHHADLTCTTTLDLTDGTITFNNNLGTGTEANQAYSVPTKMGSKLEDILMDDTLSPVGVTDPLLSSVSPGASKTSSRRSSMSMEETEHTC

[23] = THP-1 cell cytotoxicity, dose response, cytotoxicity control for non-replicating M. tuberculosis project (AID 489025); assay type: functional
[24] = molecular target: T5, Alkaline phosphatase, tissue-nonspecific isozyme (Homo sapiens, UniProt P05186); test: TNAP enzyme inhibition by screening hits, dose response, selectivity assay for mouse IAP inhibitor project, biochemical, human TNAP, uHTS hits (AID 488906); assay type: functional
T5 sequence (P05186 whole entry): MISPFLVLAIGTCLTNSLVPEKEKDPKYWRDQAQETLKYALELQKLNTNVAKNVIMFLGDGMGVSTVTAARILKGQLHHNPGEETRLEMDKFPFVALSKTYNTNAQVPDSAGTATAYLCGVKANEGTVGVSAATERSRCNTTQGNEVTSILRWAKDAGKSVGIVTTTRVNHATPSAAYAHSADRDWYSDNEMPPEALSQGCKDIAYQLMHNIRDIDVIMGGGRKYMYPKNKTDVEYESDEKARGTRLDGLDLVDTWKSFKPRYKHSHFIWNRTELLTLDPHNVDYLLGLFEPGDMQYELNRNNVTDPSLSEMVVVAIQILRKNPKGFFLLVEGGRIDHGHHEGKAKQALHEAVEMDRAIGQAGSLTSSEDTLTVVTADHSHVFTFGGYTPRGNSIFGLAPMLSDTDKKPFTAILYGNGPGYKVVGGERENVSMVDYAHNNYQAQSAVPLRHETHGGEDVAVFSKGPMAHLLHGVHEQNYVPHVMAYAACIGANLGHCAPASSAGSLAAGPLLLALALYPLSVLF

[25] = molecular target: Intestinal-type alkaline phosphatase (Homo sapiens, UniProt P09923); test: inhibition of human intestinal alkaline phosphatase – biochemical, dose response (AID 488876); assay type: functional
[26] = tested on: A-375; test: MITF: Counter assay: A375 proliferation Measured in Cell-Based System Using Plate Reader - 2084-03_Inhibitor_Dose_DryPowder_Activity. [Related pubchem assays (depositor defined):AID488944]; assay type: functional; details: Homo sapiens
[27] = molecular target: Intestinal-type alkaline phosphatase (Mus musculus, UniProt P24822); test: PubChem AID 488785; assay type: functional
[28] = microbe, parasite or virus in culture; assay type: functional; details: Mycobacterium tuberculosis
[29] = Vero E6 cell cytotoxicity, dose response, cytotoxicity control for non-replicating M. tuberculosis project, secondary assay (AID 492998); assay type: functional, VeroE6; details: Vero C1008
[30] = tested on: A-375; test: proliferation inhibition in MITF-low A375 cells – cell-based, cherry-pick samples, set 2, counter-screen for MITF modulator project, dose response (AID 540335); assay type: functional; details: Homo sapiens

Chain of ATP-dependent molecular chaperone HSP82 (C4YTQ8 whole entry): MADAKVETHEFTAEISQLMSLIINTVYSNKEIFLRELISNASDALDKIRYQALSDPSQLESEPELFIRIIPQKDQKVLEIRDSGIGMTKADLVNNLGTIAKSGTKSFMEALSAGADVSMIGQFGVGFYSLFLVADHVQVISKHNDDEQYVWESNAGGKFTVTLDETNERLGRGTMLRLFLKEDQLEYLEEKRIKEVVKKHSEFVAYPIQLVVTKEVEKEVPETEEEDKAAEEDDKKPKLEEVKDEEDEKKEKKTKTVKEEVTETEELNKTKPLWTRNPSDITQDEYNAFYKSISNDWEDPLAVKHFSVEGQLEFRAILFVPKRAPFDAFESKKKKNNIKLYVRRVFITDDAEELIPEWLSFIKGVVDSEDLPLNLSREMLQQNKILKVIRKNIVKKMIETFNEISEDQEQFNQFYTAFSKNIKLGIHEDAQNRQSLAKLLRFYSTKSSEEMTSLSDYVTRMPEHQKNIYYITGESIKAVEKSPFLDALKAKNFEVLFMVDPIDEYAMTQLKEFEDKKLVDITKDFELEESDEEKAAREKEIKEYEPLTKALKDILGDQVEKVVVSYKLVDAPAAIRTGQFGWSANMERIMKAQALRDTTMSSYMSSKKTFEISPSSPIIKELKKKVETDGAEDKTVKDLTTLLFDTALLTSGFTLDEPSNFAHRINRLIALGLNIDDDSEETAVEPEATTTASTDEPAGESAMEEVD
Chain of Intestinal-type alkaline phosphatase (Homo sapiens, UniProt P09923) (P09923 whole entry): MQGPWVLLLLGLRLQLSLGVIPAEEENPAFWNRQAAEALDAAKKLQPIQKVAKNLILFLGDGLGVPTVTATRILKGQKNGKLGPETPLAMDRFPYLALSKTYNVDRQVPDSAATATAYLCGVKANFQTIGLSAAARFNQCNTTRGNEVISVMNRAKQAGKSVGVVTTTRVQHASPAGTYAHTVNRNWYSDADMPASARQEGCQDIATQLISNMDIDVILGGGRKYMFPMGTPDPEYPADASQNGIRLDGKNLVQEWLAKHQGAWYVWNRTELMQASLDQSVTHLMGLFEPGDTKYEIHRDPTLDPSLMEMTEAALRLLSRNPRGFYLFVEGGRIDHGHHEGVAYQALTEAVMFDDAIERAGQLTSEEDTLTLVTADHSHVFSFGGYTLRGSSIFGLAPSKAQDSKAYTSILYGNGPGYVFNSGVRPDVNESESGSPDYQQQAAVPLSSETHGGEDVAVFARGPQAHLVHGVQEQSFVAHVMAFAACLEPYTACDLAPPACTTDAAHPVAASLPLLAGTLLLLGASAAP
Chain of Intestinal-type alkaline phosphatase (Mus musculus, UniProt P24822) (P24822 whole entry): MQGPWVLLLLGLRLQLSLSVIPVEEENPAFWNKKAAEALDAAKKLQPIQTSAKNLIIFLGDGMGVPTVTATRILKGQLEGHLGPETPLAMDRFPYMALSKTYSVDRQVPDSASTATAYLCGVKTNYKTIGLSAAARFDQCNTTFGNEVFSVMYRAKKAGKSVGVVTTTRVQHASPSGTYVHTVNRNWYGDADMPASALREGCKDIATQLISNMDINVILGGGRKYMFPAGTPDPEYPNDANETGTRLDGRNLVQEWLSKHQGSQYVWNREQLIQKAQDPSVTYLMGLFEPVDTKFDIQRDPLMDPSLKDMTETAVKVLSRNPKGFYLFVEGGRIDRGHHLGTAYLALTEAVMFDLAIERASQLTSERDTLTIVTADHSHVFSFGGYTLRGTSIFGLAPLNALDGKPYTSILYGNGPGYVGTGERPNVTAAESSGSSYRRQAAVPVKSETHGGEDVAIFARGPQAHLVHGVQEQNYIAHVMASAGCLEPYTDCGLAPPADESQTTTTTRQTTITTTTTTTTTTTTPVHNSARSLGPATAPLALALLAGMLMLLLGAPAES

CCOc1ccc(-c2ccc(NS(=O)(=O)c3ccc([N+](=O)[O-])cc3)cc2)nn1
EC50 [1]: > 180 µM (inactive) | EC50 [2]: > 150 µM (inactive) | EC50 [3]: 2.36 µM (active) | EC50 [4]: 50.7 µM (active)

CCCCCCCNC(=O)COc1ccc2c(c1)C(=O)CC(C)(C)O2
EC50 [1]: > 180 µM (inactive) | EC50 [2]: > 160 µM (inactive) | EC50 [3]: 2.28 µM (active) | EC50 [4]: > 160 µM (inactive) | EC50 [5]: 0.944 µM (active)

Oc1c(CN2CCN(c3ccc(F)cc3)CC2)cc(Cl)c2cccnc12
EC50 [6]: 0.192 µM (active) | EC50 [1]: > 180 µM (inactive) | AC50 [7]: 1.32 µM (active) | EC50 [2]: > 160 µM (inactive) | EC50 [8]: > 350 µM (not active) | AC50 [9]: 1.27 µM (active) | EC50 [3]: 0.693 µM (active) | EC50 [10]: 0.157 µM (active) | EC50 [4]: 26.1 µM (active) | EC50 [11]: 0.465 µM (active) | EC50 [12]: 1.56 µM (active) | EC50 [13]: 69.4 µM (active) | EC50 [14]: 8.2 µM (active) | EC50 [15]: 10.8 µM (active) | AC50 [16]: 0.534 µM (active) | EC50 [17]: 0.2 µM (active) | AC50 [18]: 7.92 µM (active) | AC50 [19]: > 70 µM (inactive) | EC50 [20]: > 150 µM (not active)

Cc1cc(Br)ccc1OCC(=O)NNC(=O)C(=O)Nc1ccccc1
EC50 [1]: > 180 µM (inactive) | EC50 [2]: > 150 µM (inactive) | EC50 [3]: 0.526 µM (active) | EC50 [4]: > 150 µM (inactive) | IC50 [21]: 12.2 µM (active)

O=C(N/N=C/c1ccc([N+](=O)[O-])o1)c1sc2ccccc2c1Cl
AC50 [22]: 4.61 µM (active) | CC50 [23]: 19.1 µM (active) | IC50 [24]: > 100 µM (inactive) | IC50 [25]: > 100 µM (inactive) | AC50 [26]: > 11 µM (active) | IC50 [27]: 7.89 µM (active) | CC50 [28]: 20.2 µM (active) | AC50 [18]: 4.4 µM (active) | CC50 [29]: > 20 µM (active) | AC50 [30]: > 11 µM (active) | IC50 [21]: 2.18 µM (active)
